Assay results from US20250136606A1, “MODULATORS OF TRPML, THEIR COMPOSITIONS AND METHODS OF USE” (Caraway Therapeutics, Inc., priority 2021, published 2025).

Legend:
Format in all cases: cell-based
TRPML1 = TRPML1 (Homo sapiens, UniProt Q9GZU1); assay: Fluorescent TRPML1 assay (Fluo4-AM calcium fluorescence in doxycycline-induced HEK-293 Trex cells)
How it was run: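 First, expression of surface-targeted mutant human TRPML1 is induced in HEK-293 Trex cells with 0.5 ug/mL doxycycline the day before. Next, cells take up 1 micromolar Fluo4-AM in Ringer's with 0.1% Pluronic. Finally, they are added to compounds (6 nanomolar–20 micromolar final) in 10 mM calcium Ringer's and fluorescence is read.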

TRPML2 = target: T1, TRPML2 (Homo sapiens, UniProt Q8IZK6); assay: Fluorescent TRPML2 assay (performed as for TRPML1, substituting the TRPML2 subtype)
T1 construct: expressed in transfected cells
T1 sequence (Q8IZK6 1-566): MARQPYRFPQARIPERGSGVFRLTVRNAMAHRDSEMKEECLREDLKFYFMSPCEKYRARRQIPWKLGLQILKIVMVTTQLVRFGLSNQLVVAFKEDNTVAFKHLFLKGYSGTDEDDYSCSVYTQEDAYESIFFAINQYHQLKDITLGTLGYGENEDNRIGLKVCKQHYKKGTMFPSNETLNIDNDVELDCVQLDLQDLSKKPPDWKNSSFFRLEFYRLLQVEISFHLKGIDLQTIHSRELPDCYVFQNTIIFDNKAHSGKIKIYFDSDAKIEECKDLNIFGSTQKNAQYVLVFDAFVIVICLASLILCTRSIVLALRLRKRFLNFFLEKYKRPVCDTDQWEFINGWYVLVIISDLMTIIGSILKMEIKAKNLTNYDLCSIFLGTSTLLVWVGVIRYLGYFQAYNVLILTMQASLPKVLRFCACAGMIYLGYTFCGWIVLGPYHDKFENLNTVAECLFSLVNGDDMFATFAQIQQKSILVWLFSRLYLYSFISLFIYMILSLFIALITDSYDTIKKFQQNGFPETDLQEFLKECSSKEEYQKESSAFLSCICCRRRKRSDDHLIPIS
How it was run: (§1)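 Agonist activity is scored as percent of plate controls from Fluo4 fluorescence after dye-loaded, doxycycline-induced HEK-293 Trex cells meet compound in high-calcium (10 mM) Ringer's. Compounds run in half-log dilutions from 20 micromolar final, in triplicate.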

TRPML3 = target: T2, TRPML3 (Homo sapiens, UniProt Q8TDD5); assay: Fluorescent TRPML3 assay (performed as for TRPML1, substituting the TRPML3 subtype)
T2 construct: expressed in transfected cells
T2 sequence (Q8TDD5 1-553): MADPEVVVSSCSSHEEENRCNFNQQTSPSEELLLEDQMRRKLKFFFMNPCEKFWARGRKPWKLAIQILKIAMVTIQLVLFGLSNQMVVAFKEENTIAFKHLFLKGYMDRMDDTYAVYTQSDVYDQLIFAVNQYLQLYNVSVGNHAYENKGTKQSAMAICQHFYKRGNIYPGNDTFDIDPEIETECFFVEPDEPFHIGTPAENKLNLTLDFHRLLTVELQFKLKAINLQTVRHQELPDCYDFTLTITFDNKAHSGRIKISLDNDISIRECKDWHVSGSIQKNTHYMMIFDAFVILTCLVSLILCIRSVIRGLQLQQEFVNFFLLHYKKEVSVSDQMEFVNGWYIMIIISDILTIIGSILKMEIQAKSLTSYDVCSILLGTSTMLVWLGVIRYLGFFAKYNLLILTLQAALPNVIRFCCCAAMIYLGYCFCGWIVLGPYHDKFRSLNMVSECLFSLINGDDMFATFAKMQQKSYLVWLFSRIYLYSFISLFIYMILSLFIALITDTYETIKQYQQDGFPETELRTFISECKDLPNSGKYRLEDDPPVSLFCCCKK
How it was run: as §1

Chain of TRPML1 (Q9GZU1 whole entry L15A/L16A/L577A/L578A, form open): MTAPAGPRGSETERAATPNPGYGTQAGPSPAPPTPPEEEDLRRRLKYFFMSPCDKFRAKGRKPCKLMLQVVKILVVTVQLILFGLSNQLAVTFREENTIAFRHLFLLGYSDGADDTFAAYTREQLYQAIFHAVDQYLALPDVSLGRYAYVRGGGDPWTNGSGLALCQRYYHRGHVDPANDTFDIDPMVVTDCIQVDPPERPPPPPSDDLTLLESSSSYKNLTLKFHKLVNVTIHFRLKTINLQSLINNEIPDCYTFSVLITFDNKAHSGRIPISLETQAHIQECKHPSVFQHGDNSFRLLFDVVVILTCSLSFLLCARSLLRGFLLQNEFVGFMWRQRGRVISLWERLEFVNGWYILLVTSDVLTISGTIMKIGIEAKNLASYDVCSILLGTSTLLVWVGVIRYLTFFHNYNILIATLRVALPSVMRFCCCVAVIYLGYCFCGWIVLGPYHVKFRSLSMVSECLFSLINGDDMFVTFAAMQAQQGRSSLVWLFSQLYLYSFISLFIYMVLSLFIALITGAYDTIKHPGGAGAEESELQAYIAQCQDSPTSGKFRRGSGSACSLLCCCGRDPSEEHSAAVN

| Compound | EC50 (TRPML1) [nM] | EC50 (TRPML2) [nM] | EC50 (TRPML3) [nM] |
| --- | --- | --- | --- |
| C[C@@H]1CN(c2ncnc3c2c(C2CCC2)cn3-c2cc(F)cc(F)c2)[C@@H](C)CN1C(=O)OC(C)(C)C [Compound 648, tert-butyl (2R,5S)-4-(5-cyclobutyl-7-(3,5-difluorophenyl)-7H-pyrrolo[2,3-d]pyrimidin-4-yl)-2,5-dimethylpiperazine-1-carboxylate] | 500 to 2000 | 500 to 2000 | 100 to 500 |
| C[C@@H]1CN(c2ncnc3c2c(-c2ccccc2F)cn3-c2cc(C(F)(F)F)ccn2)[C@@H](C)CN1C(=O)OC(C)(C)C [Compound 649, tert-butyl (2R,5S)-4-(5-(2-fluorophenyl)-7-(4-(trifluoromethyl)pyridin-2-yl)-7H-pyrrolo[2,3-d]pyrimidin-4-yl)-2,5-dimethylpiperazine-1-carboxylate] | < 100 | < 100 | < 100 |
| C[C@@H]1CN(c2ncnc3c2c(-c2ccccc2F)cn3-c2cncc(C#N)c2)[C@@H](C)CN1C(=O)OC(C)(C)C [Compound 650, tert-butyl (2R,5S)-4-(7-(5-cyanopyridin-3-yl)-5-(2-fluorophenyl)-7H-pyrrolo[2,3-d]pyrimidin-4-yl)-2,5-dimethylpiperazine-1-carboxylate] | < 100 | < 100 | < 100 |
| C[C@H]1CN(C(=O)OC(C)(C)C)CCN1c1ncnc2c1c(-c1ccccc1F)cn2-c1cc(C(F)(F)F)ccn1 [Compound 651, tert-butyl (S)-4-(5-(2-fluorophenyl)-7-(4-(trifluoromethyl)pyridin-2-yl)-7H-pyrrolo[2,3-d]pyrimidin-4-yl)-3-methylpiperazine-1-carboxylate] | < 100 | < 100 | < 100 |

Continued, values first:

| EC50 (TRPML1) [nM] | EC50 (TRPML2) [nM] | EC50 (TRPML3) [nM] | Compound |
| --- | --- | --- | --- |
| < 100 | 100 to 500 | < 100 | C[C@@H]1CN(c2ncnc3c2c(-c2ccccc2F)cn3-c2cc(C(F)(F)F)ccn2)[C@@H](C)CN1C(=O)OC1(C)CC1 [Compound 652, 1-methylcyclopropyl (2R,5S)-4-(5-(2-fluorophenyl)-7-(4-(trifluoromethyl)pyridin-2-yl)-7H-pyrrolo[2,3-d]pyrimidin-4-yl)-2,5-dimethylpiperazine-1-carboxylate] |
| < 100 | < 100 | < 100 | C[C@@H]1CN(c2ncnc3c2c(-c2ccccc2F)cn3-c2cc(F)ccn2)[C@@H](C)CN1C(=O)OC1(C)CC1 [Compound 653, 1-methylcyclopropyl (2R,5S)-4-(5-(2-fluorophenyl)-7-(4-fluoropyridin-2-yl)-7H-pyrrolo[2,3-d]pyrimidin-4-yl)-2,5-dimethylpiperazine-1-carboxylate] |
| 100 to 500 | > 2000 | < 100 | C[C@@H]1CN(c2ncnc3c2c(C2CC2)cn3-c2cccc(Cl)c2)[C@@H](C)CN1C(=O)OC1(C)CC1 [Compound 654, 1-methylcyclopropyl (2R,5S)-4-(7-(3-chlorophenyl)-5-cyclopropyl-7H-pyrrolo[2,3-d]pyrimidin-4-yl)-2,5-dimethylpiperazine-1-carboxylate] |
| < 100 | < 100 | 100 to 500 | C[C@@H]1CN(c2ncnc3c2c(C2CC2)cn3-c2cc(F)cc(F)c2)[C@@H](C)CN1C(=O)OC1(C)CC1 [Compound 655, 1-methylcyclopropyl (2R,5S)-4-(5-cyclopropyl-7-(3,5-difluorophenyl)-7H-pyrrolo[2,3-d]pyrimidin-4-yl)-2,5-dimethylpiperazine-1-carboxylate] |
| < 100 | 100 to 500 | < 100 | C[C@@H]1CN(c2ncnc3c2c(C2CC2)cn3-c2cccc(F)c2)CCN1C(=O)OC(C)(C)C [Compound 656, tert-butyl (R)-4-(5-cyclopropyl-7-(3-fluorophenyl)-7H-pyrrolo[2,3-d]pyrimidin-4-yl)-2-methylpiperazine-1-carboxylate] |
